Assay results published in the NIST ThermoML archive (doi:10.1021/je025655p).
Numbers after ± are expanded uncertainties.

How the values were obtained:
[1] = xn = mol fraction of the nth substance listed; conditions: 101.3 kPa, Liquid; for viscosity: Capillary tube (Ostwald / Ubbelohde) method; for speed of sound: Sing-around technique in a fixed-path interferometer; for mass density: Vibrating tube method
[2] = excess molar enthalpy (molar enthalpy of mixing); xn = mol fraction of the nth substance listed; conditions: 101.3 kPa, Liquid, Flow calorimetry

A viscosity ([1]; 283.15 K, x2 = 0.0508) of 2.521 ± 0.015 mPa·s, a viscosity ([1]; 283.15 K, x2 = 0.1011) of 2.265 ± 0.014 mPa·s and a viscosity ([1]; 283.15 K, x2 = 0.2025) of 1.834 ± 0.012 mPa·s were found for `OCC(F)(F)F` [2,2,2-trifluoroethanol] + C1CCOCC1 in this work. It also gave a viscosity ([1]; 283.15 K, x2 = 0.3024) of 1.546 ± 0.01 mPa·s, a viscosity ([1]; 283.15 K, x2 = 0.404) of 1.348 ± 0.0089 mPa·s and a viscosity ([1]; 283.15 K, x2 = 0.5027) of 1.22 ± 0.0083 mPa·s. For the same compound, the viscosity ([1]; 283.15 K, x2 = 0.6069) was 1.123 ± 0.0079 mPa·s, the viscosity ([1]; 283.15 K, x2 = 0.7013) was 1.064 ± 0.0077 mPa·s and the viscosity ([1]; 283.15 K, x2 = 0.8016) was 1.026 ± 0.0076 mPa·s. For the same compound, the viscosity ([1]; 283.15 K, x2 = 0.9064) was 1.01 ± 0.0078 mPa·s, the speed of sound ([1]; 283.15 K, x2 = 0.1039) was 903.5 ± 1.1 m/s and the speed of sound ([1]; 283.15 K, x2 = 0.2071) was 942.2 ± 1.2 m/s. The speed of sound ([1]; 283.15 K, x2 = 0.3067) was 985.6 ± 1.2 m/s, the speed of sound ([1]; 283.15 K, x2 = 0.4123) was 1034 ± 1.2 m/s and the speed of sound ([1]; 283.15 K, x2 = 0.5017) was 1076.2 ± 1.3 m/s. The speed of sound ([1]; 283.15 K, x2 = 0.6011) was 1124.9 ± 1.3 m/s, the speed of sound ([1]; 283.15 K, x2 = 0.7183) was 1184.3 ± 1.4 m/s and the speed of sound ([1]; 283.15 K, x2 = 0.8206) was 1237.7 ± 1.4 m/s. It also gave a speed of sound ([1]; 283.15 K, x2 = 0.8955) of 1278.1 ± 1.5 m/s, a mass density ([1]; 283.15 K, x2 = 0.1039) of 1328.18 ± 0.22 kg/m3 and a mass density ([1]; 283.15 K, x2 = 0.2071) of 1259.32 ± 0.25 kg/m3. The mass density ([1]; 283.15 K, x2 = 0.3073) was 1199.39 ± 0.28 kg/m3, the mass density ([1]; 283.15 K, x2 = 0.4127) was 1142.29 ± 0.31 kg/m3 and the mass density ([1]; 283.15 K, x2 = 0.5017) was 1097.77 ± 0.34 kg/m3. For the same compound, the mass density ([1]; 283.15 K, x2 = 0.6011) was 1051.7 ± 0.36 kg/m3, the mass density ([1]; 283.15 K, x2 = 0.7183) was 1001.3 ± 0.39 kg/m3 and the mass density ([1]; 283.15 K, x2 = 0.8206) was 960.36 ± 0.42 kg/m3. It also gave a mass density ([1]; 283.15 K, x2 = 0.8955) of 931.9 ± 0.44 kg/m3, a viscosity ([1]; 298.15 K, x2 = 0.0508) of 1.68 ± 0.011 mPa·s and a viscosity ([1]; 298.15 K, x2 = 0.1011) of 1.557 ± 0.0097 mPa·s. For the same compound, the viscosity ([1]; 298.15 K, x2 = 0.2025) was 1.33 ± 0.0085 mPa·s, the viscosity ([1]; 298.15 K, x2 = 0.3024) was 1.159 ± 0.0076 mPa·s and the viscosity ([1]; 298.15 K, x2 = 0.404) was 1.034 ± 0.007 mPa·s. For the same compound, the viscosity ([1]; 298.15 K, x2 = 0.5027) was 0.9509 ± 0.0066 mPa·s, the viscosity ([1]; 298.15 K, x2 = 0.6069) was 0.8855 ± 0.0064 mPa·s and the viscosity ([1]; 298.15 K, x2 = 0.7013) was 0.845 ± 0.0062 mPa·s. It also gave a viscosity ([1]; 298.15 K, x2 = 0.8016) of 0.8183 ± 0.0062 mPa·s, a viscosity ([1]; 298.15 K, x2 = 0.9064) of 0.8047 ± 0.0063 mPa·s and a speed of sound ([1]; 298.15 K, x2 = 0.1023) of 850.5 ± 1.1 m/s. The speed of sound ([1]; 298.15 K, x2 = 0.2029) was 886.4 ± 1.2 m/s, the speed of sound ([1]; 298.15 K, x2 = 0.3203) was 933.6 ± 1.2 m/s and the speed of sound ([1]; 298.15 K, x2 = 0.412) was 972.6 ± 1.2 m/s. It also gave a speed of sound ([1]; 298.15 K, x2 = 0.5208) of 1021 ± 1.3 m/s, a speed of sound ([1]; 298.15 K, x2 = 0.6171) of 1065.4 ± 1.3 m/s and a speed of sound ([1]; 298.15 K, x2 = 0.7342) of 1121 ± 1.4 m/s. It also gave a speed of sound ([1]; 298.15 K, x2 = 0.7996) of 1152.3 ± 1.4 m/s, a speed of sound ([1]; 298.15 K, x2 = 0.8967) of 1201.6 ± 1.5 m/s and a mass density ([1]; 298.15 K, x2 = 0.1023) of 1305.58 ± 0.22 kg/m3. The mass density ([1]; 298.15 K, x2 = 0.2029) was 1239.41 ± 0.24 kg/m3, the mass density ([1]; 298.15 K, x2 = 0.3203) was 1170.85 ± 0.28 kg/m3 and the mass density ([1]; 298.15 K, x2 = 0.412) was 1122.5 ± 0.3 kg/m3. It also gave a mass density ([1]; 298.15 K, x2 = 0.5192) of 1070.38 ± 0.34 kg/m3, a mass density ([1]; 298.15 K, x2 = 0.6171) of 1026.55 ± 0.36 kg/m3 and a mass density ([1]; 298.15 K, x2 = 0.7342) of 977.81 ± 0.39 kg/m3. It also gave a mass density ([1]; 298.15 K, x2 = 0.793) of 954.59 ± 0.41 kg/m3, a mass density ([1]; 298.15 K, x2 = 0.8967) of 915.73 ± 0.43 kg/m3 and a viscosity ([1]; 313.15 K, x2 = 0.0508) of 1.171 ± 0.0073 mPa·s. It also gave a viscosity ([1]; 313.15 K, x2 = 0.1011) of 1.112 ± 0.007 mPa·s, a viscosity ([1]; 313.15 K, x2 = 0.2025) of 0.9911 ± 0.0065 mPa·s and a viscosity ([1]; 313.15 K, x2 = 0.3024) of 0.891 ± 0.006 mPa·s. The viscosity ([1]; 313.15 K, x2 = 0.404) was 0.8127 ± 0.0056 mPa·s, the viscosity ([1]; 313.15 K, x2 = 0.5027) was 0.757 ± 0.0054 mPa·s and the viscosity ([1]; 313.15 K, x2 = 0.6069) was 0.7128 ± 0.0052 mPa·s. It also gave a viscosity ([1]; 313.15 K, x2 = 0.7013) of 0.6832 ± 0.0052 mPa·s, a viscosity ([1]; 313.15 K, x2 = 0.8016) of 0.6642 ± 0.0052 mPa·s and a viscosity ([1]; 313.15 K, x2 = 0.9064) of 0.6543 ± 0.0053 mPa·s. It also gave a speed of sound ([1]; 313.15 K, x2 = 0.0995) of 813.9 ± 1.1 m/s, a speed of sound ([1]; 313.15 K, x2 = 0.2) of 845.8 ± 1.2 m/s and a speed of sound ([1]; 313.15 K, x2 = 0.3049) of 885 ± 1.2 m/s. For the same compound, the speed of sound ([1]; 313.15 K, x2 = 0.4111) was 927.4 ± 1.2 m/s, the speed of sound ([1]; 313.15 K, x2 = 0.504) was 967.4 ± 1.3 m/s and the speed of sound ([1]; 313.15 K, x2 = 0.6032) was 1010.4 ± 1.3 m/s. The speed of sound ([1]; 313.15 K, x2 = 0.733) was 1070.3 ± 1.4 m/s, the speed of sound ([1]; 313.15 K, x2 = 0.8321) was 1116.2 ± 1.4 m/s and the speed of sound ([1]; 313.15 K, x2 = 0.8988) was 1149.4 ± 1.5 m/s. For the same compound, the mass density ([1]; 313.15 K, x2 = 0.1028) was 1280.8 ± 0.21 kg/m3, the mass density ([1]; 313.15 K, x2 = 0.2) was 1217.96 ± 0.24 kg/m3 and the mass density ([1]; 313.15 K, x2 = 0.3049) was 1157.77 ± 0.27 kg/m3. The mass density ([1]; 313.15 K, x2 = 0.4108) was 1102.63 ± 0.3 kg/m3, the mass density ([1]; 313.15 K, x2 = 0.504) was 1058.19 ± 0.32 kg/m3 and the mass density ([1]; 313.15 K, x2 = 0.5961) was 1017.26 ± 0.35 kg/m3. It also gave a mass density ([1]; 313.15 K, x2 = 0.6986) of 974.97 ± 0.38 kg/m3, a mass density ([1]; 313.15 K, x2 = 0.8321) of 923.77 ± 0.41 kg/m3 and a mass density ([1]; 313.15 K, x2 = 0.8986) of 899.6 ± 0.42 kg/m3. The excess molar enthalpy ([2]; 283.15 K, x2 = 0.065) was -0.102 ± 0.00191 kcal/mol, the excess molar enthalpy ([2]; 283.15 K, x2 = 0.127) was -0.178 ± 0.00239 kcal/mol and the excess molar enthalpy ([2]; 283.15 K, x2 = 0.248) was -0.283 ± 0.00359 kcal/mol. It also gave an excess molar enthalpy ([2]; 283.15 K, x2 = 0.36) of -0.342 ± 0.0043 kcal/mol, an excess molar enthalpy ([2]; 283.15 K, x2 = 0.466) of -0.362 ± 0.00454 kcal/mol and an excess molar enthalpy ([2]; 283.15 K, x2 = 0.57) of -0.35 ± 0.0043 kcal/mol. For the same compound, the excess molar enthalpy ([2]; 283.15 K, x2 = 0.664) was -0.303 ± 0.00382 kcal/mol, the excess molar enthalpy ([2]; 283.15 K, x2 = 0.755) was -0.243 ± 0.00311 kcal/mol and the excess molar enthalpy ([2]; 283.15 K, x2 = 0.839) was -0.168 ± 0.00239 kcal/mol. For the same compound, the excess molar enthalpy ([2]; 283.15 K, x2 = 0.921) was -0.0829 ± 0.00143 kcal/mol, the excess molar enthalpy ([2]; 283.15 K, x2 = 0.962) was -0.037 ± 0.0012 kcal/mol and the excess molar enthalpy ([2]; 298.15 K, x2 = 0.065) was -0.113 ± 0.00215 kcal/mol. For the same compound, the excess molar enthalpy ([2]; 298.15 K, x2 = 0.127) was -0.204 ± 0.00287 kcal/mol, the excess molar enthalpy ([2]; 298.15 K, x2 = 0.248) was -0.322 ± 0.00406 kcal/mol and the excess molar enthalpy ([2]; 298.15 K, x2 = 0.36) was -0.384 ± 0.00478 kcal/mol. It also gave an excess molar enthalpy ([2]; 298.15 K, x2 = 0.466) of -0.404 ± 0.00502 kcal/mol, an excess molar enthalpy ([2]; 298.15 K, x2 = 0.57) of -0.387 ± 0.00478 kcal/mol and an excess molar enthalpy ([2]; 298.15 K, x2 = 0.664) of -0.339 ± 0.0043 kcal/mol. It also gave an excess molar enthalpy ([2]; 298.15 K, x2 = 0.755) of -0.268 ± 0.00359 kcal/mol, an excess molar enthalpy ([2]; 298.15 K, x2 = 0.839) of -0.184 ± 0.00263 kcal/mol and an excess molar enthalpy ([2]; 298.15 K, x2 = 0.921) of -0.0908 ± 0.00167 kcal/mol. The excess molar enthalpy ([2]; 298.15 K, x2 = 0.962) was -0.0428 ± 0.00143 kcal/mol, the excess molar enthalpy ([2]; 313.15 K, x2 = 0.065) was -0.114 ± 0.00215 kcal/mol and the excess molar enthalpy ([2]; 313.15 K, x2 = 0.127) was -0.215 ± 0.00311 kcal/mol. The excess molar enthalpy ([2]; 313.15 K, x2 = 0.248) was -0.348 ± 0.00454 kcal/mol, the excess molar enthalpy ([2]; 313.15 K, x2 = 0.36) was -0.421 ± 0.00526 kcal/mol and the excess molar enthalpy ([2]; 313.15 K, x2 = 0.466) was -0.444 ± 0.0055 kcal/mol. For the same compound, the excess molar enthalpy ([2]; 313.15 K, x2 = 0.57) was -0.427 ± 0.00526 kcal/mol, the excess molar enthalpy ([2]; 313.15 K, x2 = 0.664) was -0.374 ± 0.00478 kcal/mol and the excess molar enthalpy ([2]; 313.15 K, x2 = 0.755) was -0.297 ± 0.00382 kcal/mol. The excess molar enthalpy ([2]; 313.15 K, x2 = 0.839) was -0.203 ± 0.00287 kcal/mol, the excess molar enthalpy ([2]; 313.15 K, x2 = 0.921) was -0.0997 ± 0.00191 kcal/mol and the excess molar enthalpy ([2]; 313.15 K, x2 = 0.962) was -0.0466 ± 0.00143 kcal/mol.
